Measured values taken from patent US6818396B1, “Process for determination of the activity of a substance using an in vitro functional test” (priority 2000, dated 2004).

Columns and labels:
[1] = molecular target: T1, native TEM-1 enzyme (Escherichia coli, UniProt P62593); experiment: Characterization of inhibitor on native TEM-1 enzyme expressed in vitro, nitrocephine test; type: biochemical; conditions: read-out: inhibition of native TEM-1 enzyme
T1 construct: made in house
Method: For this 5 μl of a translation mixture expressing either the native enzyme or one of the two mutants were separately incubated at 25° C. for 3 minutes in a final volume of 500 μl of buffer I (final concentration: NaP 50 mM pH 7.0, 1.5 μM potential inhibitor #1). Then 100 μg/ml of nitrocephine and 0.25 mM final of DMSO were added, and the reaction was followed by spectrophotometry at 486 nm. The obtained results were expressed in maximum activity percentage measured on the enzyme in the absence of inhibitor.

[2] = molecular target: T2, TEM-1 beta-lactamase (Escherichia coli, UniProt P62593); type: biochemical; conditions: for reduction of the TEM-1 activity: inhibitor 21.5 μM final
T2 construct: made in house
T2 sequence (P62593 24-286 limits assumed): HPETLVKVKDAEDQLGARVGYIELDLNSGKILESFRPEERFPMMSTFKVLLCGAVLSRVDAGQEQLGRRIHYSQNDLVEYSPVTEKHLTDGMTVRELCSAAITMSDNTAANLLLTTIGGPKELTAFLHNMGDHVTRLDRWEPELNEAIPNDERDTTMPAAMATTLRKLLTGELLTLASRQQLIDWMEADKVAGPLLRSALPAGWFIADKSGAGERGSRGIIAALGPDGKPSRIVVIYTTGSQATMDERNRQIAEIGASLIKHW
Method: A screening of new TEM-1 ? -lactamase inhibitors was carried out by the process of the invention. This enzyme was expressed in vitro as described by Zubay by using 300 μg of mRNA in a final translation volume of 5 ml. […] Then 3 μl of the translation mixture were added in each microtitration plaque well and the mixture was incubated 3 minutes at 25° C. The volume was then completed to 58 μl with a revelation solution (final concentration: NaP 40 mM pH 7.0, 100 μg/ml of nitrocephine and 0.25 mM DNSO). The reaction was followed by spectrophotometry at 486 nm. Three controls were carried out: one without translation extract (therefore without enzyme), one with the substrate alone, and one without any potential inhibitor.

T1 sequence (P62593 24-286 limits assumed): as above

Row | Structure (SMILES) | inhibition at 1.5 µM [1] [%] | reduction of the TEM-1 activity versus control without inhibitor ([2]; inhibitor 0.4 μM final, 3 minutes at 25° C. preincubation) [%] | reduction of the TEM-1 activity [2] [%]
1 | O=C(O)[C@H]1/C(=C/CO)O[C@@H]2CC(=O)N21 [inhibitor #1, clavulanic acid] | 87 | 52 | 80
2 | CC1(C)[C@H](C(=O)O)N2C(=O)C[C@H]2S1(=O)=O [inhibitor #2, sulbactam] | – | – | 73
